Experimental data as given in US20230365592A1 (Agios Pharmaceuticals, Inc., priority 2022, published 2023).

These compounds were tested against T1, human PAH with the R408W mutation (Homo sapiens, UniProt P00439, R408W) (assay: Cell Based Phenylalanine Flux Assay). Conditions: A375 cells expressing R408W PAH; 24 hrs with compound, then 20 µM sepiapterin and 800 µM 13C9,15N-Phenylalanine for 4 hours; 13C-Tyrosine by LC-MS; average where tested multiple times; read-out: AC50.
T1 construct: expressed in transfected cells
T1 sequence (P00439 1-452 R408W): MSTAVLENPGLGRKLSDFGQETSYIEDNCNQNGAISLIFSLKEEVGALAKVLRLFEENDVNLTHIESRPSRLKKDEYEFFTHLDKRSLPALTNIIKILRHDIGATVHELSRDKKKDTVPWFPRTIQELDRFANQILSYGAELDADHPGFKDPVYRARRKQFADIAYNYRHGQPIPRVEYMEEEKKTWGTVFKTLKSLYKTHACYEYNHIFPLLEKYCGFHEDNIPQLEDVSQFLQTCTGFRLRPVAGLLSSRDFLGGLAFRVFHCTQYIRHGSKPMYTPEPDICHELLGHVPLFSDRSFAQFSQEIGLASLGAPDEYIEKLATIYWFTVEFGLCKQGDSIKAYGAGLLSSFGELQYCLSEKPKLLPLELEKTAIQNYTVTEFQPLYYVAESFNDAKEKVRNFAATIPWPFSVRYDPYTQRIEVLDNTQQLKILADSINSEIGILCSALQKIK
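Further: after compound treatment, cells received sepiapterin plus isotope-labelled Phenylalanine for 4 hours, then labelled Tyrosine in the medium was quantified, 10-point 2-fold dilution series run in duplicate.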
Experimental: Compounds were resuspended in DMSO, and 2-fold serial dilutions were performed to generate a 10-point dose curve. Compounds were added to plated cells in a total volume of 100 µl, and a final DMSO concentration of 0.5%. Each compound was tested in duplicate. Following compound addition, cells were placed in a 5% CO2, 37° C. tissue culture incubator for 24 hrs. After the incubation period, 20 µM sepiapterin and 800 µM 13C9,15N-Phenylalanine were added. After 4 hours, cell media was removed. An aliquot of 10 µl of cell media was combined with 200 µl of extraction buffer (80% acetonitrile/20% H2O) for each well. Determination of ^13C-Tyrosine concentration was assessed by liquid chromatography mass spectrometry.
Where a compound was tested multiple times, the average value of the tests is reported.

SMILES	AC50
Cc1c(C2c3nc[nH]c3CCN2C(=O)c2nnc(-c3ccn(C)n3)o2)nn2ccccc12 (stereo not drawn) [listing 1 of 2 here]	> 5 µM
O=C(c1nnc(-c2cc[nH]n2)o1)N1CCc2[nH]cnc2C1c1cc2ccccn2n1 (stereo not drawn)	> 5 µM
Cc1nc(-c2ccccn2)oc1C(=O)N1CCc2[nH]cnc2C1c1cc2ccccn2n1 (stereo not drawn)	> 5 µM
Fc1cccnc1-c1nnc(N2CCc3[nH]cnc3C2c2cc3c(C4CC4)cccn3n2)o1 (stereo not drawn) [listing 1 of 2 here]	> 5 µM
Cc1cccc2cc(C3c4nc[nH]c4CCN3c3nnc(-c4cnccn4)o3)nn12 (stereo not drawn) [listing 1 of 2 here]	> 5 µM
O=C(c1cnc(-c2cnccn2)o1)N1CCc2[nH]cnc2C1c1cc2ccccn2n1 (stereo not drawn)	> 5 µM
O=C(c1cnc(-c2ccccn2)o1)N1CCc2[nH]cnc2C1c1cc2ccccn2n1 (stereo not drawn) [listing 1 of 2 here]	> 5 µM
Fc1ncccc1-c1nnc(N2CCc3[nH]cnc3C2c2cc3ccccn3n2)o1 (stereo not drawn) [listing 1 of 2 here]	> 5 µM
Cc1nnc(C(=O)N2CCc3[nH]cnc3C2c2cc3ccccn3n2)o1 (stereo not drawn) [listing 1 of 2 here]	> 5 µM
Fc1ncccc1-c1nnc(N2CCc3[nH]cnc3C2c2cc3c(C(F)F)cccn3n2)o1 (stereo not drawn) [listing 1 of 2 here]	> 5 µM
Cc1ncccc1-c1nnc(N2CCc3[nH]cnc3C2c2cc3c(C4CC4)cccn3n2)o1 (stereo not drawn)	1 to 5 µM
Fc1ncccc1-c1nnc(N2CCc3[nH]cnc3C2c2cc3c(C4CC4)cccn3n2)o1 (stereo not drawn) [listing 1 of 2 here]	> 5 µM
c1cncc(-c2nnc(N3CCc4[nH]cnc4C3c3cc4c(C5CC5)cccn4n3)o2)c1 (stereo not drawn) [listing 1 of 2 here]	> 5 µM
O=C(c1cn[nH]c1Cl)N1CCc2[nH]cnc2C1c1cc2ccccn2n1 (stereo not drawn) [listing 1 of 2 here]	1 to 5 µM
Cc1cccn2nc(C3c4nc[nH]c4CCN3C(=O)c3ccnn3C(F)F)cc12 (stereo not drawn)	1 to 5 µM
Cn1ccc(C(=O)N2CCc3[nH]cnc3C2c2cc3ccccn3n2)n1 (stereo not drawn)	> 5 µM
Cc1cccn2nc(C3c4nc[nH]c4CCN3c3cnn(C)c3)cc12 (stereo not drawn)	1 to 5 µM
Cn1nc(N)cc1C(=O)N1CCc2[nH]cnc2C1c1cc2ccccn2n1 (stereo not drawn)	> 5 µM
O=C(c1nnc(-c2cnn(CC(F)F)c2)o1)N1CCc2[nH]cnc2C1c1cc2ccccn2n1 (stereo not drawn)	1 to 5 µM
Cc1c(C2c3nc[nH]c3CCN2C(=O)c2nnc(-c3ccn(C)n3)o2)nn2ccccc12 (stereo not drawn) [listing 2 of 2 here]	1 to 5 µM
Cc1c(C2c3nc[nH]c3CCN2C(=O)c2nnc(-c3cnn(C)c3)o2)nn2ccccc12 (stereo not drawn)	1 to 5 µM

SMILES	AC50
CC(F)(F)c1nnc(N2CCc3[nH]cnc3C2c2cc3cccc(C(F)(F)F)n3n2)o1 (stereo not drawn)	1 to 5 µM
CC(C)c1cccn2nc(C3c4nc[nH]c4CCN3c3nnc(C(C)(C)F)o3)cc12 (stereo not drawn)	1 to 5 µM
CC(C)(F)c1nnc(N2CCc3[nH]cnc3C2c2cc3c(F)cccn3n2)o1 (stereo not drawn)	1 to 5 µM
CC(C)(F)c1nnc(N2CCc3[nH]cnc3C2c2cc3ccccn3n2)o1 (stereo not drawn)	> 5 µM
CC(C)(O)c1cc(C(=O)N2CCc3[nH]cnc3C2c2cc3ccccn3n2)no1 (stereo not drawn)	> 5 µM
CC(C)(O)c1nc(C(=O)N2CCc3[nH]cnc3C2c2cc3ccccn3n2)no1 (stereo not drawn)	> 5 µM
Cc1n[nH]cc1-c1nnc(C(=O)N2CCc3[nH]cnc3C2c2cc3c(C)cccn3n2)o1 (stereo not drawn)	1 to 5 µM
FC(F)c1cccn2nc(C3c4nc[nH]c4CCN3c3nnc(C4CC(F)(F)C4)o3)cc12 (stereo not drawn)	1 to 5 µM
Fc1cccn2nc(C3c4nc[nH]c4CCN3c3nnc(C4CC(F)(F)C4)o3)cc12 (stereo not drawn)	1 to 5 µM
FC1(F)CC(c2nnc(N3CCc4[nH]cnc4C3c3cc4c(C(F)(F)F)cccn4n3)o2)C1 (stereo not drawn)	1 to 5 µM
CC(C)c1cccn2nc(C3c4nc[nH]c4CCN3c3cnccn3)cc12 (stereo not drawn)	> 5 µM
FC1(F)CC(c2nnc(N3CCc4[nH]cnc4C3c3cc4c(Cl)cccn4n3)o2)C1 (stereo not drawn)	1 to 5 µM
CC(C)(F)c1nnc(N2CCc3[nH]cnc3C2c2cc3c(Cl)cccn3n2)o1 (stereo not drawn)	> 5 µM
CC(C)c1nnc(N2CCc3[nH]cnc3C2c2cc3c(C4CC4)cccn3n2)o1 (stereo not drawn)	> 5 µM
CC(C)(F)c1nnc(N2CCc3[nH]cnc3C2c2cc3c(C4CC4)cccn3n2)o1 (stereo not drawn)	> 5 µM
FC1(F)CC(c2nnc(N3CCc4[nH]cnc4C3c3cc4c(C5CC5)cccn4n3)o2)C1 (stereo not drawn)	1 to 5 µM
Cc1n[nH]cc1-c1nnc(C(=O)N2CCc3[nH]cnc3C2c2cc3c(F)cccn3n2)o1 (stereo not drawn)	1 to 5 µM
COc1cccn2nc(C3c4nc[nH]c4CCN3C(=O)c3nnc(-c4cnn(C)c4)o3)cc12 (stereo not drawn)	1 to 5 µM
COc1cccn2nc(C3c4nc[nH]c4CCN3C(=O)c3oc(C(C)(C)O)nc3C(F)F)cc12 (stereo not drawn)	> 5 µM
Clc1cccn2nc(C3c4nc[nH]c4CCN3c3nnc(-c4ncccn4)o3)cc12 (stereo not drawn)	1 to 5 µM
Cc1c(C2c3nc[nH]c3CCN2C(=O)c2nnc(-c3ccccn3)o2)nn2ccccc12 (stereo not drawn)	1 to 5 µM

SMILES	AC50
Fc1cccnc1-c1nnc(N2CCc3[nH]cnc3C2c2cc3c(C(F)F)cccn3n2)o1 (stereo not drawn)	1 to 5 µM
Fc1cccnc1-c1nnc(N2CCc3[nH]cnc3C2c2cc3c(C4CC4)cccn3n2)o1 (stereo not drawn) [listing 2 of 2 here]	1 to 5 µM
c1cnc(-c2nnc(N3CCc4[nH]cnc4C3c3cc4c(C5CC5)cccn4n3)o2)nc1 (stereo not drawn)	1 to 5 µM
Cc1cccn2nc(C3c4nc[nH]c4CCN3C(=O)c3cnc(C(C)(C)O)o3)cc12 (stereo not drawn)	1 to 5 µM
FC(F)(F)c1cccc2cc(C3c4nc[nH]c4CCN3c3nnc(-c4cnccn4)o3)nn12 (stereo not drawn)	1 to 5 µM
Clc1cccc2cc(C3c4nc[nH]c4CCN3c3nnc(-c4cnccn4)o3)nn12 (stereo not drawn)	1 to 5 µM
Cc1cccc2cc(C3c4nc[nH]c4CCN3c3nnc(-c4cnccn4)o3)nn12 (stereo not drawn) [listing 2 of 2 here]	1 to 5 µM
O=C(c1cnc(-c2ccccn2)o1)N1CCc2[nH]cnc2C1c1cc2ccccn2n1 (stereo not drawn) [listing 2 of 2 here]	1 to 5 µM
O=C(c1ccnn1-c1ccccn1)N1CCc2[nH]cnc2C1c1cc2ccccn2n1 (stereo not drawn)	1 to 5 µM
CC(C)(O)c1cc(C(=O)N2CCc3[nH]cnc3C2c2cc3ccccn3n2)on1 (stereo not drawn)	1 to 5 µM
O=C(c1cnn(-c2ccccn2)c1Cl)N1CCc2[nH]cnc2C1c1cc2ccccn2n1 (stereo not drawn)	1 to 5 µM
CC(C)c1nnc(N2CCc3[nH]cnc3C2c2cc3c(C(C)C)cccn3n2)o1 (stereo not drawn)	> 5 µM
Fc1ncccc1-c1nnc(N2CCc3[nH]cnc3C2c2cc3c(C(F)(F)F)cccn3n2)o1 (stereo not drawn)	1 to 5 µM
Fc1ncccc1-c1nnc(N2CCc3[nH]cnc3C2c2cc3ccccn3n2)o1 (stereo not drawn) [listing 2 of 2 here]	1 to 5 µM
Fc1cccc(-c2nnc(N3CCc4[nH]cnc4C3c3cc4ccccn4n3)o2)n1 (stereo not drawn)	1 to 5 µM
Cc1ncccc1-c1nnc(N2CCc3[nH]cnc3C2c2cc3ccccn3n2)o1 (stereo not drawn)	1 to 5 µM
Cc1nnc(C(=O)N2CCc3[nH]cnc3C2c2cc3ccccn3n2)o1 (stereo not drawn) [listing 2 of 2 here]	1 to 5 µM
O=C(C1CN(CC(F)(F)F)C1)N1CCc2[nH]cnc2C1c1cc2ccccn2n1 (stereo not drawn)	> 5 µM
Fc1ncccc1-c1nnc(N2CCc3[nH]cnc3C2c2cc3c(C(F)F)cccn3n2)o1 (stereo not drawn) [listing 2 of 2 here]	1 to 5 µM
FC(F)c1cccn2nc(C3c4nc[nH]c4CCN3c3nnc(-c4cccnc4)o3)cc12 (stereo not drawn)	1 to 5 µM
c1cncc(-c2nnc(N3CCc4[nH]cnc4C3c3cc4c(C5CC5)cccn4n3)o2)c1 (stereo not drawn) [listing 2 of 2 here]	1 to 5 µM

SMILES	AC50
Fc1ncccc1-c1nnc(N2CCc3[nH]cnc3C2c2cc3c(C4CC4)cccn3n2)o1 (stereo not drawn) [listing 2 of 2 here]	1 to 5 µM
Cc1cccn2nc(C3c4nc[nH]c4CCN3c3nnc(-c4cccnc4)o3)cc12 (stereo not drawn)	1 to 5 µM
O=C(c1cn[nH]c1)N1CCc2[nH]cnc2C1c1cc2ccccn2n1 (stereo not drawn)	> 5 µM
COc1cccn2nc(C3c4nc[nH]c4CCN3C(=O)c3ocnc3C(F)F)cc12 (stereo not drawn)	1 to 5 µM
Cc1cccn2nc(C3c4nc[nH]c4CCN3C(=O)c3ocnc3C(F)F)cc12 (stereo not drawn)	1 to 5 µM
Cc1ccc2cc(C3c4nc[nH]c4CCN3C(=O)c3ocnc3C(F)F)nn2c1 (stereo not drawn)	1 to 5 µM
CCn1cnnc1C(=O)N1CCc2[nH]cnc2C1c1cc2ccccn2n1 (stereo not drawn)	1 to 5 µM
O=C(c1ocnc1C(F)F)N1CCc2[nH]cnc2C1c1cc2c(Cl)cccn2n1 (stereo not drawn)	1 to 5 µM
NC(=O)c1ncoc1C(=O)N1CCc2[nH]cnc2C1c1cc2ccccn2n1 (stereo not drawn)	1 to 5 µM
O=C(c1ccn[nH]1)N1CCc2[nH]cnc2C1c1cc2ccccn2n1 (stereo not drawn)	> 5 µM
O=C(c1cnco1)N1CCc2[nH]cnc2C1c1cc2ccccn2n1 (stereo not drawn)	1 to 5 µM
O=C(c1cnn(CC(F)(F)F)c1Cl)N1CCc2[nH]cnc2C1c1cc2ccccn2n1 (stereo not drawn)	1 to 5 µM
O=C(c1cn[nH]c1Cl)N1CCc2[nH]cnc2C1c1cc2ccccn2n1 (stereo not drawn) [listing 2 of 2 here]	1 to 5 µM
Fc1ccc(-c2nnc(N3CCc4[nH]cnc4C3c3cc4ccccn4n3)o2)nc1 (stereo not drawn)	1 to 5 µM
Cc1nc(C(C)O)oc1C(=O)N1CCc2[nH]cnc2C1c1cc2ccccn2n1 (stereo not drawn)	1 to 5 µM
Cc1cccn2nc(C3c4nc[nH]c4CCN3C(=O)c3oc(C(C)O)nc3C(F)F)cc12 (stereo not drawn)	1 to 5 µM
CC(O)c1nc(C(F)F)c(C(=O)N2CCc3[nH]cnc3C2c2cc3c(Cl)cccn3n2)o1 (stereo not drawn)	1 to 5 µM
Cc1nc(C(C)O)oc1C(=O)N1CCc2[nH]cnc2C1c1cc2c(F)cccn2n1 (stereo not drawn)	1 to 5 µM
